pIC50: −log10 of the molar value. Like-named read-outs stand apart in the source and are kept apart here.
Molecular target: T1, Dipeptidyl peptidase IV (Homo sapiens, UniProt P27487)
T1 construct: Dipeptidyl peptidase IV was purified from human placenta; from tissue; host or cells: human placenta
Assay: DPP IV inhibition assay (chromogenic substrate Ala-Pro-p-nitroanalide)
Assay type: biochemical
Settings: Xaa-N(Methyl)-boroGly series; for pIC50: 10 min incubation with enzyme, assay 25° C.; for Cyclization Index (CI): ratio of the IC50 at pH 8 and the IC50 at pH 2
Description: Dipeptidyl peptidase IV was purified from human placenta. Assays were performed at room temperature (25° C.) in 100 mM HEPES, pH 8.0, 0.14 M NaCl with the chromogenic substrate Ala-Pro-p-nitroanalide (Bachem) using a Molecular Devices SPECTRAmax 340PC^384 microtiter plate reader Inhibitor stocks (1 mg/mL) were prepared in 0.01 N HCl solution for pH 2.0 and in pH 8.0 HEPES buffer for pH 8.0. Both stocks were equilibrated at corresponding pH overnight at room temperature. The 1:10 dilution of inhibitor stocks was done with 0.01 N HCl for pH 2.0 and with pH 8.0 HEPES buffer for pH 8.0 immediately preceding the enzymatic reactions. Enzymatic reactions were carried out by incubating 250 μL of approximately 0.35 nM DPP IV with 30 μL of various inhibitor concentrations (ranging between 10^−3 and 10^−10 M) for 10 minutes before addition of 30 μL of 300 μM substrate. The absorbance at 410 nm was measured 30 minutes after addition of the substrate. Assays and their corresponding measurements were performed in triplicate. The negative control was prepared exactly the same as above, except that 30 μL of 0.01 N HCl was added instead of inhibitor solutions.
After a 10 minute incubation with the enzyme before addition of the substrate. The IC50 values were determined by fitting the data to a sigmoidal dose-response curve using non-linear regression in Prism 3.0 (Graph Pad).

[1] = inhibitor stock equilibrated overnight at pH 2.0 (0.01 N HCl), HEPES pH 8.0, read-out: IC50 (pH 2)
[2] = inhibitor stock equilibrated overnight at pH 8.0 (HEPES buffer), read-out: IC50 (pH 8)

T1 sequence (P27487 whole entry): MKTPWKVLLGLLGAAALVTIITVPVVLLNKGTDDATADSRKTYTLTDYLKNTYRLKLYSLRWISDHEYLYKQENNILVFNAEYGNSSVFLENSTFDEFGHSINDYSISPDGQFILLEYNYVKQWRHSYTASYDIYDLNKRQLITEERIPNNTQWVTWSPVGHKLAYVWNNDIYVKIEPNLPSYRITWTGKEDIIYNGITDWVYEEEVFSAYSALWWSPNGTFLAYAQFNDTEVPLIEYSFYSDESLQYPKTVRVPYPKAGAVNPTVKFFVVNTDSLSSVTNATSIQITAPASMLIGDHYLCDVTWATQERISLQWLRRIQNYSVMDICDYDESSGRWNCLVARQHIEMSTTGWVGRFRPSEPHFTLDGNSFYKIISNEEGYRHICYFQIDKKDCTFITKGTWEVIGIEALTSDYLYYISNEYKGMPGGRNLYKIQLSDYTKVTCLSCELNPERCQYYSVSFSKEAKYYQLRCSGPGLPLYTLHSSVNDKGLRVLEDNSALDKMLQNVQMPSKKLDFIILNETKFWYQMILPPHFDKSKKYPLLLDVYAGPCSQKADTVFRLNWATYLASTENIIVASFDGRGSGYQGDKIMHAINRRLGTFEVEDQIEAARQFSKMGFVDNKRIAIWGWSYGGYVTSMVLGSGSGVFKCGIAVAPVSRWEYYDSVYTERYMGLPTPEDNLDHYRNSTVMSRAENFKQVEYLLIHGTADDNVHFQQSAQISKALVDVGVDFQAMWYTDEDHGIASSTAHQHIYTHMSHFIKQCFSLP

Row | pIC50 [1] | pIC50 [2] | Cyclization Index (CI) | Compound
1 | > 6.82 | > 6.82 | <1 | CN(CB(O)O)C(=O)CNC(C)(C)C [N-t-Butyl-Gly, H-N-(tBu)-Gly-boroSar]
2 | > 6.15 | > 4.30 | <100 | C[C@@H](O)[C@H](N)C(=O)N(C)CB(O)O [Thr, H-(S)-Thr-boroSar]
3 | > 6.82 | > 6.82 | <1 | CC(C)(C)C(N)C(=O)O (stereo not drawn) [t-Butyl-Gly]
4 | > 4.12 | > 3.00 | <5 | H-(S)-N-(Me)-Ala-boroSar [N-Methyl-Ala]
5 | > 6.40 | > 4.60 | <100 | CSCC[C@H](N)C(=O)N(C)CB(O)O [Met, H-(S)-Met-boroSar]

Source: patent publication US20100105629A1, “N-Substituted Peptidomimetic Inhibitors of Dipeptidylpeptidase IV” (priority 2007, published 2010)
